We go through 2 molecules from US20200031920A1, “Combination Therapy for Treating Cancer” (The George Washington University, priority 2017, published 2020).

For data set [1], the system named is SKOV3 CR xenograft tumors. The data set is described as follows: SKOV3 CR xenograft tumors in nude mice. Type of data set: in vivo. The procedure:
FIG. 26 are line graphs showing the growth curves of tumors (A) and Kaplan-Meier survival curves (C) from mice treated with vehicle, LY2784544 (15 mg/kg/day intraperitoneally), cisplatin (8 mg/kg/week intraperitoneally), or LY2784544 plus cisplatin (combo) for 2 weeks. A photograph of the representative tumor from mice in each treatment arm is also shown (B). Data in (A) are represented as mean±SEM, n=6 mice/group. *p<0.05, **p<0.01, ***p<0.001. Data in (B) are represented as n=6 mice/group. *p<0.05, **p<0.01. Ruler scale in (B) is in cm.
FIG. 27 is an illustration showing the IHC and TUNEL staining of tumors from mice in each treatment arm sacrificed after 4 days of treatment. n=3 mice/group. Bar=50 μm.
To determine whether LY2784544 is able to sensitize SKOV3 CR cells to cisplatin in vivo, SKOV3 CR cells were implanted subcutaneously into nude mice. When the tumor volume reached 100 mm^3, mice were randomized to receive intraperitoneal injections of vehicle, cisplatin (8 mg/kg on days 1 and 8), LY2784544 (15 mg/kg/d from day 1 to day 14), or the combination of cisplatin and LY2784544. […] To evaluate whether this in vivo tumor suppression was through inhibition of the JAK2 pathway and increased apoptosis, the tumor samples four days after full dosage treatment were collected. […] Quantification of phosphorylated JAK2 and TUNEL staining in tumor tissues treated was performed (FIG. 28). […] To confirm the selectivity of LY2784544, an in vitro kinase profiling was conducted to examine the interaction of LY2784544 with more than 450 human kinases.

The test system of another data set is SKOV3 CR cells. The data set is described as follows: clonogenic (colony formation) assay. Type of data set: cell-based. The conditions noted are these: 0.1 μM LY2784544 and 0.5 μM cisplatin, 14 days. The procedure: FIG. 16 is an illustration showing representative colony formation (A) and bar graphs ((B)-(C)). SKOV3 parental and resistant cells were treated with 0.1 μM LY2784544 and 0.5 μM cisplatin for 14 days and quantification data of colony formation assays ((B) and (C)). Colonies in (A) were stained with crystal violet. Data are represented as mean±SD from three independent experiments performed in triplicate. *p<0.05, **p<0.01, ***p<0.001.
Clonogenic assays were conducted to evaluate the cell survival of SKOV3 and SKOV3 CR cells in response to cisplatin, LY2784544, or both cisplatin and LY2784544. […] Currently, carboplatin-based chemotherapy becomes a universal choice. The synergistic effect of LY2784544 with carboplatin on SKOV3 CR cells was also examined.

For another data set, the system named is IGROV1 cells. The experiment in a line: cell proliferation assay, IGROV1 parental cells. Format: cell-based. Conditions: 5 days. From the text:
FIG. 60 is a line graph showing the proliferation of IGROV1 parental and IGROV1 CR cells treated with increasing concentrations of cisplatin for 5 days (left). Data are represented as mean±SD from three independent experiments performed in triplicate. Indicated IC50 values represent the mean of two independent experiments performed in triplicate.
Using a similar approach as described in FIG. 1, another cisplatin resistant ovarian cancer cell line IGROV1 CR was raised from its cisplatin sensitive parental cell IGROV1 cells. […] The cell proliferation of IGROV1 CR cells treated with cisplatin, LY2784544 or both LY2784544 and cisplatin was examined.

The test system of another data set is SKOV3 xenograft tumors. The data set is described as follows: SKOV3 and SKOV3 CR xenograft tumors treated with cisplatin. Format: in vivo, nude mice. How it is done: FIG. 4 is an illustration showing representative TUNEL staining (A) and a bar graph (B) of SKOV3 and SKOV3 CR xenograft tumors treated with cisplatin for two weeks (2 mg/kg or 4 mg/kg cisplatin twice per week) and quantified apoptosis percentage (B). n−3 mice/group. Bar in (A)−50 μm. Data are represented as mean±SD. **p<0.01, ***p<0.001.
FIG. 52 is a bar graph showing IL-11 levels measured by ELISA in plasma of mice bearing SKOV3 xenograft tumors treated with vehicle or cisplatin (2-6 mg/kg/twice a week intraperitoneally for 2 weeks). Data are represented as mean±SD. n=3 mice/group. **p<0.01, ***p<0.001.
Since cisplatin exerts its anticancer effect mainly through its ability to cause DNA damage, resulting in apoptosis, the apoptotic cells in both SKOV3 and SKOV CR cells were measured using Annexin V and Propidium Iodide staining. […] To test whether SKOV3 CR cells are resistant to cisplatin-induced apoptosis in vivo, both SKOV3 and SKOV3 CR cells were injected into nude mice to form xenograft tumors. Once the tumor size reached 100-150 mm^3, cisplatin was given to mice by intraperitoneal injections twice a week for 2 weeks. Three days after treatment, the apoptosis in tumors was examined by TUNEL staining. […] Currently, carboplatin is a more commonly used platinum drug employed clinically to treat ovarian patients. Ozols et al., J Clin Oncol 21: 3194-3200 (2003). Thus, it was tested whether SKOV3 CR cells are also resistant to carboplatin (Sigma-Aldrich).
To further test whether ovarian cancer cells have a similar response to cisplatin in vivo, SKOV3 xenograft tumors were treated with various doses of cisplatin (2 mg-6 mg/kg/twice per week) for 2 weeks. Mice were sacrificed 4 days after the last treatment, and blood samples and xenograft tumors were collected to examine IL-11 expression. […] A high dose of cisplatin generated the high levels of both IL-11 and pJAK2 (Y1007/1008) on tumors (FIG. 53). Thus, cisplatin is able to promote expression of IL-11 as well as JAK2 pathway both in vitro and in vivo.

[2] abbreviates: tumor samples four days after full dosage treatment.
[3] abbreviates: SKOV3 xenograft, cisplatin 2-6 mg/kg twice per week for 2 weeks.

Structures are written as SMILES.

For the molecule `Cc1cc(Nc2cc(CN3CCOCC3)c3nc(C)c(Cc4ccc(Cl)cc4F)n3n2)n[nH]1` [LY2784544], the “tumor growth, combination versus vehicle or single agents” value in data set [1] (LY2784544 15 mg/kg/d i.p. day 1-14 plus cisplatin 8 mg/kg i.p. days 1 and 8) is “significantly reduced the tumor growth”. Moreover, the “survival of mice, combination” value in data set [1] (LY2784544 15 mg/kg/d i.p. plus cisplatin 8 mg/kg i.p. days 1 and 8) is reported as “improved survival of the mice”. Besides, in data set [1] (any treated groups (cisplatin, LY2784544, combination), 4 days after final treatment), the “histopathology of liver and kidney” value was “No histopathological changes and lesions in liver and kidney”. Moreover, the “mouse body weight, combined treatment with cisplatin” value in data set [1] (during treatment) is “no significant reduction in mouse body weight”. In data set [1] (setting [2]), the “apoptosis in tumors (TUNEL), combined with cisplatin” value was “significantly induced the apoptosis” and the “phosphorylation of JAK2 in tumors (IHC)” value is on record as “efficiently reduce the phosphorylation of JAK2 in vivo”. Also, the “cell survival, combined treatment compared to cisplatin treatment” value in the data set with SKOV3 CR cells was “significantly reduced the survival of SKOV3 CR”.
`N.N.[Cl][Pt][Cl]` [cisplatin]: the IC50 in the data set on IGROV1 cells came to 510 nM. Moreover, in the data set on SKOV3 xenograft tumors (setting [3]), the “IL-11 and pJAK2 levels in tumors (IHC)” value is given as “significant increase of IL-11 as well as pJAK2 (Y1007/1008) levels in SKOV3 tumors”; the “human IL-11 levels in serum” value was “dramatically increased human IL-11 levels in serum of nude mice”. For the same molecule, the “apoptosis in xenograft tumors (TUNEL)” value in the data set on SKOV3 xenograft tumors (cisplatin i.p. twice a week for 2 weeks (2 or 4 mg/kg), three days after treatment) is “apoptotic population was significantly increased in SKOV3 but not in SKOV3 CR cells”.

As usually defined, the IC50 is the concentration that inhibits the measured activity by half.
